Here are results for nine compounds from patent US7105664B2, “5-Halogen-6-phenyl-7-fluoroalkylamino-triazolopyrimidines as fungicides” (BASF Aktiengesellschaft, priority 2001, dated 2006).

The subject of the first experiment is Pyricularia oryzae.
Assay: not given
In kind it is in vivo. Particulars: 200 ppm, rice seedlings variety Tai-Nong 67, protective; untreated plants infected to 90%.
On to `Fc1cc(F)c(-c2c(Cl)nc3ncnn3c2NCC(F)C(F)(F)F)c(F)c1` (stereo not drawn) [I-1], for which the “infection (% diseased leaf area)” value came to 3%.
Consider `CC(Nc1c(-c2c(F)cccc2F)c(Cl)nc2ncnn12)C(F)(F)F` (stereo not drawn) [C], for which the “infection (% diseased leaf area)” value came out at 20%.
On to `Fc1cc(F)c(-c2c(Cl)nc3ncnn3c2NCC(F)(F)F)c(F)c1` [A], for which the “infection (% diseased leaf area)” value was determined as 60%.
The same measure, in the same setting: the result for `FC(F)=C(F)CCNc1c(-c2c(F)cc(F)cc2F)c(Cl)nc2ncnn12` [I-2] reads 3%.
Same read-out and setting: the same measure for `Fc1cccc(Cl)c1-c1c(Cl)nc2ncnn2c1NCC(F)(F)F` [B]: 10%.
Take `CC(CNc1c(-c2c(F)cc(F)cc2F)c(Cl)nc2ncnn12)CC(F)(F)F` (stereo not drawn) [I-3]: the “infection (% diseased leaf area)” value amounted to 3%.

For a further experiment, the system named is Blumeria graminis f. sp. tritici. The experiment in a line: Control of powdery mildew on wheat, Comparison Trial 2. Type of experiment: in vivo. Particulars: 50 ppm, wheat variety Kanzler; untreated plants infected to 100%.
Take `COc1cc(F)c(-c2c(Cl)nc3ncnn3c2NCCC(F)(F)F)c(F)c1` [I-7]: the “infection (% diseased leaf area)” value stood at 7%.
Regarding `COc1cc(F)c(-c2c(Cl)nc3ncnn3c2NCC(F)(F)F)c(F)c1` [D], the “infection (% diseased leaf area)” value is 80%.
For `COc1cc(F)c(-c2c(Cl)nc3ncnn3c2NC(C)C(F)(F)F)c(F)c1` (stereo not drawn) [E], the “infection (% diseased leaf area)” value is recorded as 80%.

Still in this experiment, the particulars now being: 200 ppm, wheat variety Kanzler; untreated plants infected to 100%.
On to `COc1cc(F)c(-c2c(Cl)nc3ncnn3c2NCCC(F)(F)F)c(F)c1` [I-7], for which the “infection (% diseased leaf area)” value was found to be 3%.
Turning to `COc1cc(F)c(-c2c(Cl)nc3ncnn3c2NCC(F)(F)F)c(F)c1` [D], the “infection (% diseased leaf area)” value is given as 60%.
Same read-out and setting: the result for `COc1cc(F)c(-c2c(Cl)nc3ncnn3c2NC(C)C(F)(F)F)c(F)c1` (stereo not drawn) [E] reads 80%.
